Consider 10 compounds from publication PMC9953967, “Discovery of Novel Bioactive Tanshinones and Carnosol Analogues against Breast Cancer” (Cancers, 2023).

The structures appear in SMILES notation. Like-named read-outs stand apart in the source and are kept apart here.

As usually defined, the EC50 is the concentration at which the effect is half-maximal. As usually defined, the GI50 is the concentration that inhibits growth by half.

Data set [1] relates to MDA-MB231. Description: CellTiterGlo luminescent cell viability assay, MDA-MB231. For orientation: Cellular ATP, detected with luciferase, serves as a proxy for viable cell number.
Procedure: (§1) A cell proliferation assay was performed using the CellTiterGlo (CTG, Promega Corp., Madison, WI, USA) luminescent cell viability assay kit. MDA-MB231 cells were seeded into 96-well plates at concentrations experimentally determined to ensure logarithmic growth during the duration of the experiment and to prevent adverse effects on cell growth by DMSO exposure. The plates were incubated 12 h before treatment. […] The final concentration of DMSO was 0.3% (v/v) in each well. The positive control used was staurosporine (1 μM) and a toxic quinolone generated inhouse, as kill-all controls, and the negative control used was cholesterol. […] The plates were incubated for 72 h and then quenched with CTG at 50 μL per well at RT. Plates were then incubated at RT for 20 min and centrifuged at 1000 rpm for 1 min. Luminescence was read on a CLARIOstar Plus plate reader (BMG LabTech, Ortenberg, Germany). The cell viability assay was also performed in the non-neoplastic cell line BJ, which was incubated with compounds, as mentioned in cell viability assay (CTG). The mean luminescence of each experimental treatment group was normalized as a percentage of the mean intensity of untreated controls. EC50 values were calculated from dose-response curve-fitting via non-linear regression using GraphPad Prism 9.0 (GraphPad Software, San Diego, CA, USA) (Figure S1).
For data set [2], the system named is MDA-MB231. Details: method as in PMID 26241873. The settings on record: cited from earlier work.
Data set [3] has as its system SUM149. Description: CellTiterGlo luminescent cell viability assay, SUM149.
Procedure: as §1
Data set [4] concerns T47D. Briefly: CellTiterGlo luminescent cell viability assay, T47D. The settings on record: Homo sapiens, 72 h.
Procedure: as §1
The test system of data set [5] is MCF07. Briefly: CellTiterGlo luminescent cell viability assay, MCF07.
Procedure: as §1
Data set [6] concerns several cell models of breast cancer. More on the design: method as in PMID 26241873. The settings on record: read-out: EC50 antiproliferative activity; cited from earlier work.
A short description of data set [7]: CellTiterGlo cell viability assay, non-neoplastic cell line BJ. The settings on record: human, BJ cells (non-neoplastic, non-tumorigenic cell line), Cytotoxicity IC50 BJ, 72 h incubation, CellTiter-Glo, mean ± SD.
Procedure: as §1
Another data set is described as follows: in vitro. The settings on record: human, Cytotoxicity IC50 BJ.
The test system of data set [8] is MDA-MB231. More on the design: method as in PMID 30793595. The settings on record: read-out: Antiproliferative activity, sulforhodamine B assay, MDA-MB231; cited from earlier work. For orientation: Sulforhodamine B stains cellular protein and so reports cell mass.
For another data set, the system named is MCF-7. Details: method as in PMID 30793595. The settings on record: read-out: Antiproliferative activity, sulforhodamine B assay, MCF-7; cited from earlier work.
Another data set relates to HBL-100 and T-47D. More on the design: method as in PMID 30840453. The settings on record: two breast cancer cell lines HBL-100 and T-47D, SRB assay; cited from earlier work.
Data set [9] has as its system non-tumorigenic cell line BJ. Description: CellTiterGlo cell viability assay, non-neoplastic cell line BJ. The settings on record: read-out: Cytotoxicity IC50 BJ, 72 h incubation, CellTiter-Glo, mean ± SD.
Procedure: as §1
A short description of data set [10]: Ferric Reducing Antioxidant Power (FRAP) assay. The settings on record: compounds at 100 μM; positive control ascorbic acid 1 mM. The protocol: An antioxidant evaluation of the compounds was performed using the Ferric Reducing Antioxidant Power (FRAP) Assay Colorimetric Kit (ab234626, Abcam, Cambridge, UK) following the manufacturers’ instructions. Briefly, FRAP reagents were mixed with compounds at 100 μM in 96-well plates, and then reacted for 10 min at 37 °C in the dark. Ascorbic acid was provided as the positive control (1mM). After incubation, the absorbance was read using a microplate reader (CLARIOstar Plus, BMG LabTech, Ortenberg, Germany) at 594 nm. FRAP [19] was quantified using a reagent calibration curve (Y = 0.039X + 0.002, R^2 = 0.9978) and calculated as nmol Ferrous equivalents.

In data set [11] the test system is MDA-MB231. Description: Propidium iodide (PI) assay with Hoechst counterstain. Type of data set: cell-based, human. The settings on record: MDA-MB231, 48 h, 25 μM. The method, then:
Propidium iodide (PI) assay was performed to complement the viability assay. The assay was conducted with MDA-MB231 cancer cell models seeded in 48-well plates (Clear, Corning#3548) and cultured for 12 h, then treated for 48 h. Cells were fixed with cold methanol, and stained (0.4% PI, Sigma-Aldrich, Co., St. Louis, MO, USA). Fluorescence was measured and analyzed using Cytation 1 Image Reader (BioTek, Winooski, VT, USA). Cell viability was calculated/plotted as the percentage of surviving cells after treatment relative to the vehicle. For qualitative analysis and visualization, doubling staining was performed using Hoechst dye to stain nuclei.

Data set [12] has as its system non-tumorigenic cell line BJ. The settings on record: human, 72 h.
Procedure: as §1
In data set [13] the test system is SUM149.
Procedure: as §1
The subject of data set [14] is MCF07.
Procedure: as §1
Data set [15] has as its system T47D. The settings on record: human, 72 h.
Procedure: as §1
[16] abbreviates: Homo sapiens, MDA-MB-231, 72 h, read-out: Cytotoxicity IC50 MDA-MB231, 72 h incubation, CellTiter-Glo, mean ± SD.
[17] abbreviates: Homo sapiens, SUM149, 72 h, read-out: Cytotoxicity IC50 SUM149.
The mark [18] stands for this setting: read-out: Cytotoxicity IC50 T47D, 72 h incubation, CellTiter-Glo, mean ± SD.
Setting [19] is: Homo sapiens, 72 h, read-out: Cytotoxicity IC50 MCF07, 72 h incubation, CellTiter-Glo, mean ± SD.
[20] abbreviates: read-out: Cytotoxicity IC50 MDA-MB231, 72 h incubation, CellTiter-Glo, mean ± SD.

Procedure for in vitro: as §1

As for `CC(C)c1cc2c(cc1O)[C@@]1(C)CCCC(C)(C)[C@@H]1CC2` [Compound 1, ferruginol], the IC50 was 8.3 ± 1.4 µM with MDA-MB231 [1] (setting [16]), over 50 µM in the data set with SUM149 [3] (setting [17]), over 100 µM in the data set with T47D [4] (setting [18]) and 19 ± 1.5 µM in the data set on MCF07 [5] (setting [19]). Further, the “Inhibition of cell cycle progression at the G2/M phase” value in the data set with MDA-MB231 [2] is recorded as 19%. The “Cell cycle arrest at G0/G1” value with MDA-MB231 [2] (positive control 43%, negative control 48.36%) is 50.76%. The EC50 in [6] was under 50 µM. Besides, the IC50 at 72 h in data set [7] was over 50 µM.

As to `CC(C)c1cc2c(cc1O)[C@@]1(C)CCC[C@@](C)(CN)[C@@H]1CC2` [Compound 2, 12-hydroxydehydroabietylamine], the IC50 in the data set with MDA-MB231 [1] (setting [16]) was 5.1 ± 0.6 µM; in the data set with SUM149 [3] (setting [17]), 4.4 ± 0.3 µM; in the data set on T47D [4] (setting [18]) it was over 50 µM; with MCF07 [5] (setting [19]) it was 10 ± 1.5 µM. For the same compound, the IC50 at 72 h in “in vitro” was determined as 75 ± 6.2 µM.

Take `CC(C)c1cc2c(c(O)c1O)[C@@]13CCCC(C)(C)[C@@H]1C[C@@H]2OC3=O` [Compound 4, carnosol]: in data set [6], the EC50 was under 50 µM.

Consider `COC(=O)[C@]1(C)CCC[C@]2(C)c3cc(O)c(C(C)C)cc3CC[C@@H]12` [Compound 5, Methyl 12-hydroxyabieta-8,11,13-trien-18-oate], for which the results for the IC50 with MDA-MB231 [8] and in the data set with MCF-7 were 18.6 µM and 5.9 µM, respectively. Moreover, the GI50 in the data set on HBL-100 and T-47D was 9.7 to 19 µM.

Take `CC(C)c1cc2c(cc1O)[C@@]1(C)CCC[C@@](C)(CN3C(=O)c4ccccc4C3=O)[C@@H]1CC2` [Compound 6, 18-(phthalimid-2-yl)ferruginol]: the IC50 in the data set on MDA-MB231 [1] (setting [16]) was determined as 8.22 ± 0.47 µM; in the data set on MDA-MB231 [1] (setting [20]), 8.2 ± 0.5 µM; in the data set with SUM149 [3] (Homo sapiens, SUM149, 72 h, read-out: Cytotoxicity IC50 SUM149, 72 h incubation, CellTiter-Glo, mean ± SD) it was 4.45 ± 0.2 µM; in the data set on SUM149 [3] (read-out: Cytotoxicity IC50 SUM149, 72 h incubation, CellTiter-Glo, mean ± SD), 4.4 ± 0.2 µM; with T47D [4] (read-out: Cytotoxicity IC50 T47D), 29.2 ± 1.5 µM; with MCF07 [5] (Homo sapiens, 72 h, read-out: Cytotoxicity IC50 MCF07), 13 ± 0.6 µM. Further, the IC50 in data set [9] is 74.8 ± 5.3 µM. Moreover, the IC50 at 72 h in [7] came out at 74.8 ± 5.3 µM.

Turning to `COC(=O)[C@]1(C)CCC[C@]2(C)C3=C(C=C(C(C)C)C(=O)C3=O)CC[C@@H]12` [Compound 7, Methyl 11,12-Dioxo-abieta-8,13-dien-18-oate], the IC50 was 3.95 ± 0.8 µM in the data set on MDA-MB231 [1] (setting [16]); 3.9 ± 0.8 µM in the data set with MDA-MB231 [1] (setting [20]); 1.3 ± 0.6 µM in the data set with SUM149 [3] (setting [17]); 14.1 ± 0.5 µM in the data set on T47D [4] (setting [18]); 8.29 ± 0.93 µM in the data set with MCF07 [5] (setting [19]); 8.3 ± 0.9 µM with MCF07 [5] (read-out: Cytotoxicity IC50 MCF07, 72 h incubation, CellTiter-Glo, mean ± SD). In [9], the IC50 was found to be 56.5 ± 6.1 µM. Besides, the “Antioxidant potential (FRAP)” value in data set [10] is reported as “significant antioxidant potential”. The compound further displayed an IC50 at 72 h in [7] of 56.5 ± 6.1 µM.

Consider `CC(C)C1=CC2=C(C(=O)C1=O)[C@@]1(C)CCC[C@@](C)(CN3C(=O)c4ccccc4C3=O)[C@@H]1CC2` [Compound 8, 11,12-Dioxo-N,N-(phthaloyl)dehydroabietylamine], for which the IC50 with MDA-MB231 [1] (setting [16]) turned out to be 2.8 ± 0.4 µM; in the data set with SUM149 [3] (setting [17]), 1.5 ± 0.4 µM; with T47D [4] (setting [18]), 18.7 ± 0.3 µM; in the data set with MCF07 [5] (setting [19]), 2.3 ± 1.1 µM; in data set [9] it was 35.4 ± 5 µM. Besides, the “Dose-dependent cell death (PI staining)” value with MDA-MB231 [11] is “clearly indicates this dependency”. Also, the IC50 at 72 h in [7] is 35.4 ± 5 µM.

Consider `COC(=O)[C@]1(C)CCC[C@]2(C)c3c(cc(C(C)C)c(O)c3O)CC[C@@H]12` [Compound 9, Methyl 11,12-Dihydroxy-dehydroabietate], for which the IC50 in the data set on MDA-MB231 [8] is 2.7 µM; in data set [12] it was 57.6 ± 3 µM; in the data set on MDA-MB231 [1] (setting [16]), 9.4 ± 0.4 µM; in the data set on MCF-7, 2.8 µM; in the data set with SUM149 [3] (setting [17]) it was over 50 µM; with T47D [4] (setting [18]), 14.4 ± 0.6 µM. Further, in the data set on MCF07 [5] (setting [19]), the IC50 was over 50 µM. In addition, in the data set with SUM149 [13], the “Cytotoxicity IC50 SUM149” value is given as “removed the activity”. Besides, the “Cytotoxicity IC50 MCF07” value with MCF07 [14] is reported as “removed the activity”. Besides, in data set [10], the “Antioxidant potential (FRAP)” value is “significant antioxidant potential”. The IC50 at 72 h in “in vitro” was found to be 57.6 ± 3 µM.

Regarding `CC(C)c1cc2c(c(O)c1O)[C@@]1(C)CCC[C@@](C)(CN3C(=O)c4ccccc4C3=O)[C@@H]1CC2` [Compound 10, 11,12-Dihydroxy-N,N-(phthaloyl)dehydroabietylamine], the IC50 was determined as 8.2 ± 0.4 µM in the data set on T47D [15]; 32.5 ± 5 µM in data set [12]; 2.8 ± 0.2 µM in the data set on MDA-MB231 [1] (setting [16]); 1.8 ± 0.2 µM with SUM149 [3] (setting [17]); 8.17 ± 0.44 µM in the data set with T47D [4] (setting [18]); 4.6 ± 0.6 µM in the data set with MCF07 [5] (setting [19]). This compound also gave an IC50 at 72 h in “in vitro” of 32.5 ± 5 µM.

Take `CC(C)c1ccc2c(c1)CC[C@H]1[C@](C)(CN)CCC[C@]21C` [dehydroabietylamine]: in data set [6], the concentration giving a half-maximal response (EC50) is under 50 µM.
